Test results as given in patent US8921373B2, “Compounds having TRPV1 antagonistic activity and uses thereof” (Shionogi & Co., Ltd., priority 2010, dated 2014).

Target: human recombinant TRPV1 (Homo sapiens (Human), UniProt Q8NER1)
Test: TRPV1 pH-Based Assay (Protocol 2, Ca2+ response in TRPV1/CHO cells, Fura-2)
Type: cell-based
Conditions: TRPV1/CHO cells, pH 5.0-5.1; read-out: IC50 value by the pH-Based Assay
In short: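 CHO cells stably expressing human TRPV1, Fura-2 loaded, given compound (1% DMSO in 10× stock) before acid challenge to final pH 5.0-5.1 (3.2 or 3.3 mM H2SO4). 340/380 nm ratio recorded at 0.5 Hz; maximal ratio after agonist addition versus 16-point baseline used as response.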

Chain of human recombinant TRPV1 (Q8NER1 whole entry): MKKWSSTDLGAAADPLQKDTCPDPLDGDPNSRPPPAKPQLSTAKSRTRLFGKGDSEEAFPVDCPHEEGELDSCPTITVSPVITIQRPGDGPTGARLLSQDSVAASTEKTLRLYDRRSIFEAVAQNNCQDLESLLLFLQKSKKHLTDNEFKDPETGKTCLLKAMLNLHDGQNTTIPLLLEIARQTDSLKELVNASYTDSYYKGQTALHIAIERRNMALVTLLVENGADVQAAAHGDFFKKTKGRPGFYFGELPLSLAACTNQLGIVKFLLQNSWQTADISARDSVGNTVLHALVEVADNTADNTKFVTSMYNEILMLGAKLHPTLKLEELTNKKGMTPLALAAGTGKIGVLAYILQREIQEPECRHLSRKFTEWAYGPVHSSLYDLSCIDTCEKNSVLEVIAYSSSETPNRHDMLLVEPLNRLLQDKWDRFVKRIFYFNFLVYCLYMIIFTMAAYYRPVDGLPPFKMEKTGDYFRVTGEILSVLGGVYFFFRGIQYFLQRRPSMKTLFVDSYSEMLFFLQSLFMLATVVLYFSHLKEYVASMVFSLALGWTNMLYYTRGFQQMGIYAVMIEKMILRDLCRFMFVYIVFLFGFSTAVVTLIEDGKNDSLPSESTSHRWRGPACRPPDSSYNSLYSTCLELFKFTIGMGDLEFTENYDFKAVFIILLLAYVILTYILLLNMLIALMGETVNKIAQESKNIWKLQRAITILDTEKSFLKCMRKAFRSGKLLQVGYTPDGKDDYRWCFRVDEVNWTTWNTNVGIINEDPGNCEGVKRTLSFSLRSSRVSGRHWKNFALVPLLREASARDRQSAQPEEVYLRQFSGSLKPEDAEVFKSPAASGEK

IC50: ≤ 50 nM
Compound: Cc1cc(NC(=O)N2CCC(F)(c3ncc(C[C@H](O)CO)cc3F)CC2)ccc1C(F)(F)F [ACQ, (S)-4-(5-(2,3-dihydroxypropyl)-3-fluoropyridin-2-yl)-4-fluoro-N-(3-methyl-4-(trifluoromethyl)phenyl)piperidine-1-carboxamide]
